From US12496350B2 (Ohio State Innovation Foundation, priority 2018, dated 2025)
Where two headings read alike, the source gives them in different places. One block for each molecule: values may come before it. Where a SMILES comes first, the peptide text is derived from it. [ ]: non-standard residue; d: D form. The star is where a group is joined. X1 = O=C(O)c1cc(NC(=S)*)ccc1C1c2ccc(O)cc2Oc2cc(O)ccc21; 2Nal = N[C@@H](Cc1ccc2ccccc2c1)C(=O)O; Bta = N[C@@H](Cc1csc2ccccc12)C(=O)O; Pen = CC(C)(S)[C@H](N)C(=O)O; Tle = CC(C)(C)[C@H](N)C(=O)O; Pip = O=C(O)[C@@H]1CCCCN1; AEEA = NCCOCCOCC(=O)O

How the values were obtained:
HeLa cells [1] = details: positive control value; cited from earlier work
[2] = target: T1, CAL PDZ domain (CALP5-His) (Homo sapiens, UniProt Q9HD26); assay: FP-based competition assay, Condition B (probe FAM-[…]-OH); format: binding; details: for IC50: 500 nM CALP5-His, 5 mM DTT
T1 construct: His
Protocol: Serial dilutions of each competitor peptide were prepared in PBS and the incubation solution was added to each. The combined solutions were gently mixed for 1 h at RT after which 20 uL sample was pipetted into 384-well black-on-black microplates and fluorescence polarization was measured using a TECAN Infinite M1000 plate reader. Data was processed to determine IC50 using GraphPad PRISM ver. 6.0.

HeLa cells [3] = assay: Cellular uptake efficiency by flow cytometry; format: cell-based; details: for Uptake (% rel.): HeLa cells, 5 μM, 2 h, relative to CPP9 (100%)
Protocol: (§1) Cellular Uptake Efficiency: HeLa cells were seeded into 12-well cell-culture treated plates at a final density of 15×10^4 cells/well in DMEM supplemented with 10% FBS and 1% penicillin/streptomycin and incubated overnight at 37° ° C. and 5% CO2. After 24 h, the media was aspirated followed by washing the cells three times with warm DPBS. Peptides were diluted to a final concentration of 5 μM in DMEM containing 10% FBS with 1% penicillin/streptomycin, added to each well and then incubated for 2 h at 37° C. and 5% CO2. After 2 h, treatment media was aspirated and the cells were washed three times with ice-cold DPBS. Cells were removed from the plate via treatment with trypsin/EDTA and then harvested in ice-cold DPBS followed by centrifugation at ×300 RCF, 4° C. for 5 min. Cells were resuspended in DPBS and quantified using a BD Biosciences LSR II flow cytometer and gated using FlowJo. Values for uptake are provided as a percentage relative to positive control, CPP9 ([cyclo-fΦRrRrQ]-miniPEG-K[NF]).
as §1, with “Cellular Uptake. HeLa cells” for “Cellular Uptake Efficiency: HeLa cells”, “at 37° C. and” for “at 37° ° C. and”, “37° C. with 5% CO2.” for “37° C. and 5% CO2.”, “centrifugation at 300 g, 4° C.” for “centrifugation at ×300 RCF, 4° C.”, “control, CPP9 ([cyclo-fΦRrRrQ]-miniPEG-K[NF]), which has a 62% cytosolic entry efficiency. PGD97 entered HeLa cells at 60% efficiency relative to CPP9, corresponding to an absolute cytosolic entry efficiency of ˜36% (FIG. 9).” for “control, CPP9 ([cyclo-fΦRrRrQ]-miniPEG-K[NF]).”

[4] = Preliminary tests of cellular activity; format: cell-based; details: 50 nM concentration
[5] = target: T1, CAL PDZ domain (CALP5-His); assay: Direct fluorescence polarization binding of labeled peptide, Condition C
Protocol: Condition C (denoted with superscript ^C): 50 nM labeled peptide was incubated with 2 mM TCEP in PBS at pH 7.4 containing 0.01% Triton-X100. CALP5-His was serially diluted in PBS containing 0.01% Triton-X100 to which was then added the peptide and TCEP solution. This solution was mixed for 1 h at RT then 20 uL was pipetted into 384-well microplates and fluorescence polarization was measured using a TECAN Infinite M1000 plate reader. KD values were calculated using KaleidaGraph v. 3.6 using the equation: […]
(§2) Binding Affinity and Selectivity. The potency and selectivity of inhibitor 29 was first assessed by comparing its binding affinity to the four PDZ domains of CAL, NHERF1, and NHERF2, which are involved in the trafficking of CFTR to and from the plasma membrane. Peptides were labeled with FITC at the N-terminus through a miniPEG linker and tested for binding to various PDZ domains by fluorescence polarization (FP). FITC-labeled peptide (50 nM) was incubated with varying concentrations of PDZ domain in PBS (pH 7.4) containing 0.01% Triton X-100 and 2 mM TCEP for 1 h at room temperature. After 1 h, 20 μL of each sample was pipetted into 384-well black-on-black microplates and fluorescence polarization was measured by using a TECAN Infinite M1000 plate reader. Data was processed using GraphPad PRISM ver. 8.0.

NHERF2-PDZ2 (N2P2) = target: T2, NHERF2-PDZ2 (N2P2) (Homo sapiens, UniProt Q15599); assay: Direct fluorescence polarization binding of FITC-labeled peptide; details: 50 nM FITC-labeled peptide, FP
T2 construct: PDZ1 (N2P1), and NHERF2-PDZ2 domains (N2P2)
Protocol: as §2

NHERF2-PDZ1 (N2P1) = target: T3, NHERF2-PDZ1 (N2P1) (Homo sapiens, UniProt Q15599); assay: as above; details: 50 nM FITC-labeled peptide, FP
T3 construct: PDZ1 (N2P1), and NHERF2-PDZ2 domains (N2P2)
Protocol: as §2

NHERF1-PDZ1 (N1P1) = target: T4, NHERF1-PDZ1 (N1P1) (Homo sapiens, UniProt O14745); assay: as above
T4 sequence (O14745 14-94 limits assumed): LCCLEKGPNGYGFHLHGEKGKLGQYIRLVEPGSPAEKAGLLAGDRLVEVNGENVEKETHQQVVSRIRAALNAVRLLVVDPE
Protocol: as §2

LC3-II = assay: Autophagy in macrophages, western blotting for LC3-II; format: cell-based, human; details: 10 μM, ΔF508 CFTR macrophages
Protocol: Effect on Autophagy in Macrophage. Human primary ΔF508 CFTR macrophages were incubated with 10 μM VX809 (n=1) or 100 nM PGD97 (n=2) for 48 h in complete growth medium supplemented with 10% FBS and 1% penicillin/streptomycin at 37° C. Induction of autophagy was determined via western blotting for autophagy-associated protein LC3-II.

[6] = HCT116 cell spheroids in RPMI-1640 medium supplemented with 10% FBS and 1% penicillin/streptomycin; details: up to 24 h
HCT116 cell spheroids = assay: Intracellular stability by MALDI imaging; format: in vitro ADME; details: after 4 or 24 h incubation with PGD97
Protocol: Intracellular Stability. PGD97 ([…]) was added to HCT116 cell spheroids in RPMI-1640 medium supplemented with 10% FBS and 1% penicillin/streptomycin and incubated for 4 or 24 h. After incubation, spheroids were washed 3× with DPBS, quickly frozen, embedded in a solid support, and cryo-sectioned. Prior to analysis, sinapinic acid was sublimed onto individual slides. The sample was imaged using a Bruker ultrafleXtreme MALDI-TOF-TOF and analyzed for the presence of proteolytic degradation fragments. Heatmaps, scaled relative to the most intense signal, were generated for the intact peptide (both 29 and 32) as well as ˜20 potential proteolytic fragments at each time point. […] A degradation fragment (#1) corresponding to proteolytic cleavage between Thr and Arg (FIG. 8B) was observed, but none of the other potential degradation products were observed. […] Most importantly, significant concentrations of intact peptide 29 was still present inside the cells after 24 h.

[7] = Condition B (superscript b): 100 nM probe FAM-[…]-OH
[8] = 50 nM FITC-labeled peptide, FP, read-out: KD (nM) CALP
[9] = 50 nM FITC-labeled peptide, FP, read-out: KD (nM) N1P1
[10] = Condition B (superscript b): 100 nM probe FAM-ANSRWPTSII-OH
[11] = FITC-labeled peptide, FP, read-out: Affinity (KD)

T3 sequence (Q15599 11-90 limits assumed): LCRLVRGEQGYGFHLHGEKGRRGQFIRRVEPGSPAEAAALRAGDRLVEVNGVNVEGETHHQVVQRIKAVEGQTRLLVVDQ
T2 sequence (Q15599 150-230 limits assumed): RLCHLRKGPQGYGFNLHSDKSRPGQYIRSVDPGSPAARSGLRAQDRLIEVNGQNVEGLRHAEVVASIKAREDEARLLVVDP

Molecule: [cyclo-fΦRrRrQ]-miniPEG-K[NF] [CPP9]
cytosolic entry efficiency (HeLa cells [1]): 62%

Molecule: CC(=O)N[C@@H](CS)C(=O)N[C@H](CCCNC(=N)N)C(=O)N[C@@H](CCCNC(=N)N)C(=O)N[C@@H](CCCNC(=N)N)C(=O)N[C@@H](Cc1ccc2ccccc2c1)C(=O)N[C@@H](Cc1c[nH]c2ccccc12)C(=O)N[C@@H](CCC(N)=O)C(=O)N[C@H](C(=O)N[C@H](C(=O)N[C@@H](CCCNC(=N)N)C(=O)N[C@H](C(=O)O)C(C)(C)C)[C@@H](C)O)C(C)(C)S [Compound 20, Ac-Cys-(D-Arg)-Arg-Arg-(2-Nal)-Trp-Gln-Pen-Thr-Arg-Tle-OH] (Ac-C[dR]RR[2Nal]WQ[Pen]TR[Tle]-OH)
IC50 [2, 7]: 165 nM
Uptake (% rel.) (HeLa cells [3]): 28 ± 1%
Kd [5, 8]: 110 nM
Kd ([5]; FITC-labeled peptide 20, FP, read-out: KD for CAL PDZ domain (FIG. 3A)): ~50 nM
Kd (NHERF2-PDZ2 (N2P2)): 4970 ± 890 nM
Kd (NHERF2-PDZ1 (N2P1)): 2980 ± 150 nM
Kd (NHERF1-PDZ1 (N1P1); [9]): 1640 ± 150 nM

Molecule: CC(C)(CO)c1cc2cc(NC(=O)C3(c4ccc5c(c4)OC(F)(F)O5)CC3)c(F)cc2n1C[C@@H](O)CO [VX661, Tezacaftor, reference compound]
LC3-II protein levels (LC3-II): also effective

Molecule: CC(=O)N[C@@H](CS)C(=O)N[C@H](CCCNC(=N)N)C(=O)N[C@H](CCCNC(=N)N)C(=O)N[C@@H](CCCNC(=N)N)C(=O)N[C@@H](Cc1ccc2ccccc2c1)C(=O)N[C@@H](Cc1c[nH]c2ccccc12)C(=O)N[C@@H](CCC(N)=O)C(=O)N[C@H](C(=O)N[C@H](C(=O)N[C@@H](CCCNC(=N)N)C(=O)N[C@H](C(=O)O)C(C)(C)C)[C@@H](C)O)C(C)(C)S [Compound 21, Ac-Cys-(D-Arg)-(D-Arg)-Arg-(2-Nal)-Trp-Gln-Pen-Thr-Arg-Tle-OH] (Ac-C[dR][dR]R[2Nal]WQ[Pen]TR[Tle]-OH)
IC50 [2, 10]: 270 nM
Uptake (% rel.) (HeLa cells [3]): 23 ± 4%

Molecule: CC(=O)N[C@@H](CS)C(=O)N[C@H](CCCNC(=N)N)C(=O)N[C@@H](CCCNC(=N)N)C(=O)N[C@@H](CCCNC(=N)N)C(=O)N[C@@H](Cc1ccc2ccccc2c1)C(=O)N[C@@H](Cc1csc2ccccc12)C(=O)N1CCCC[C@H]1C(=O)N[C@H](C(=O)N[C@H](C(=O)N[C@@H](CCCNC(=N)N)C(=O)N[C@H](C(=O)O)C(C)(C)C)[C@@H](C)O)C(C)(C)S [Compound 29, Ac-Cys-(D-Arg)-Arg-Arg-Nal-Bta-Pip-Pen-Thr-Arg-Tle-OH] (Ac-C[dR]RR[2Nal][Bta][Pip][Pen]TR[Tle]-OH)
presence of intact peptide in spheroids (HCT116 cell spheroids): High concentrations
Kd [5, 8]: 6 ± 3 nM
Kd [5, 11]: 6 nM
improvement of CAL PDZ-binding affinity ([5]; Pip for Pro): ~15 fold
selectivity for CAL vs NHERF PDZ domains ([5]; ratio of KD values, NHERF1/2 PDZ domains vs CAL PDZ): ≥ 130 fold
Kd (NHERF1-PDZ1 (N1P1); range over N1P1, N2P1 and N2P2, read-out: KD values for NHERF1/2 PDZ domains): 780 to 7480 nM

Now from value to molecule, other results behind:

IC50 [2, 7]: 235 nM
potency in CAL binding, fold more potent ([2]; relative to peptide 24): 1.5 fold
improvement in cell-permeability (HeLa cells [3]; Bta for Trp at P-5, relative to peptide 24): > 5 fold
Uptake (% rel.) (HeLa cells [3]): 518 ± 74%
cell-permeability, fold better (HeLa cells [3]; relative to CPP9): 5 fold
cell-permeability, fold better (HeLa cells [3]; relative to peptide 20): ~20 fold
Molecule: CC(=O)N[C@@H](CS)C(=O)N[C@H](CCCNC(=N)N)C(=O)N[C@@H](CCCNC(=N)N)C(=O)N[C@@H](CCCNC(=N)N)C(=O)N[C@@H](Cc1ccc2ccccc2c1)C(=O)N[C@@H](Cc1csc2ccccc12)C(=O)N[C@H](C(=O)N[C@H](C(=O)N[C@H](C(=O)N[C@@H](CCCNC(=N)N)C(=O)N[C@H](C(=O)O)C(C)(C)C)[C@@H](C)O)C(C)(C)C)C(C)(C)S [Compound 25, Ac-Cys-(D-Arg)-Arg-Arg-(2-Nal)-(Bta)-Pen-Tle-Thr-Arg-Tle-OH] (Ac-C[dR]RR[2Nal][Bta][Pen][Tle]TR[Tle]-OH)
cellular activity [4]: robust cellular activity

cleaved bond [6]: Thr-Arg
Molecule: Ac-Cys-(D-Arg)-Arg-Arg-Nal-Bta-Pip-Pen-Thr-Arg-Tle-OH

Kd [5, 8]: 6 ± 3 nM
Kd [5, 11]: 6 ± 3 nM
Kd (NHERF2-PDZ2 (N2P2)): 7480 ± 580 nM
Kd (NHERF2-PDZ1 (N2P1)): 1370 ± 380 nM
Kd (NHERF1-PDZ1 (N1P1); [9]): 780 ± 10 nM
Molecule: C[C@@H](O)[C@H](NC(=O)[C@@H](NC(=O)[C@@H]1CCCCN1C(=O)[C@H](Cc1csc2ccccc12)NC(=O)[C@H](Cc1ccc2ccccc2c1)NC(=O)[C@H](CCCNC(=N)N)NC(=O)[C@H](CCCNC(=N)N)NC(=O)[C@@H](CCCNC(=N)N)NC(=O)[C@H](CS)NC(=O)COCCOCCNC(=S)Nc1ccc(C2c3ccc(O)cc3Oc3cc(O)ccc32)c(C(=O)O)c1)C(C)(C)S)C(=O)N[C@@H](CCCNC(=N)N)C(=O)N[C@H](C(=O)O)C(C)(C)C [Compound 29-FITC, FITC-miniPEG-Cys-(D-Arg)-Arg-Arg-Nal-Bta-Pip-Pen-Thr-Arg-Tle-OH] ({X1-AEEA}-C[dR]RR[2Nal][Bta][Pip][Pen]TR[Tle]-OH)

IC50 [2, 10]: 380 nM
decrease of CAL binding ([2]; relative to peptide 22): ~2 fold
Uptake (% rel.) (HeLa cells [3]): 92%
cell-permeability, fold higher (HeLa cells [3]; relative to peptide 22): 4 fold
Molecule: CC(=O)N[C@@H](CS)C(=O)N[C@H](CCCNC(=N)N)C(=O)N[C@@H](CCCNC(=N)N)C(=O)N[C@@H](CCCNC(=N)N)C(=O)N[C@@H](Cc1ccc2ccccc2c1)C(=O)N[C@@H](Cc1c[nH]c2ccccc12)C(=O)N[C@H](C(=O)N[C@H](C(=O)N[C@H](C(=O)N[C@@H](CCCNC(=N)N)C(=O)N[C@H](C(=O)O)C(C)(C)C)[C@@H](C)O)C(C)(C)C)C(C)(C)S [Compound 24, Ac-Cys-(D-Arg)-Arg-Arg-(2-Nal)-Trp-Pen-Tle-Thr-Arg-Tle-OH] (Ac-C[dR]RR[2Nal]W[Pen][Tle]TR[Tle]-OH)
